Results taken from patent publication US9249145B2, “Heterocyclic derivatives of pyrazol-4-yl-pyrrolo[2,3-d]pyrimidines as janus kinase inhibitors” (Incyte Holdings Corporation, priority 2009, dated 2016).

Experiments:
[1] = biological target: T1, human JAK1 (a.a. 837-1142) (Homo sapiens, UniProt P23458); assay: In vitro JAK kinase assay (HTRF, phosphorylation of biotinylated peptide), JAK1; assay type: biochemical; conditions: 1 mM ATP; Examples 92-162; read-out: JAK1 IC50 (nM) @ 1 mM ATP
T1 construct: The catalytic domains of human JAK1 (a.a. 837-1142); His tag (N); made in house; host or cells: insect cells (baculovirus)
T1 sequence (P23458 849-1154): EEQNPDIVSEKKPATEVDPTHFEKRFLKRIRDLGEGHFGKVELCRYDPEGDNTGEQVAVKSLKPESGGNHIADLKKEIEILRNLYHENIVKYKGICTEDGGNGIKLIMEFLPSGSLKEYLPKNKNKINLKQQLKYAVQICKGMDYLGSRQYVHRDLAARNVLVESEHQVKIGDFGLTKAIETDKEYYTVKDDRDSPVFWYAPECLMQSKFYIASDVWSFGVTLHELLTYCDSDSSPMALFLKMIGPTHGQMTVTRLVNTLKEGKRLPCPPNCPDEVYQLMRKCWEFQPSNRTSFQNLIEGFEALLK
Summary of the method: (§1)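 IC50 from HTRF detection (Eu-Py20 antibody, SA-APC, 40 min) after EDTA quench. Reactions ran 1 h at room temperature with 500 nM biotinylated peptide in Tris pH 7.8 buffer with NaCl, DTT, BSA; ATP 90 μM for JAK1, 30 μM for JAK2 (Km), or 1 mM. Enzymes: His-tagged catalytic domains from insect cells.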

Jak2 (a.a. 828-1132) = biological target: T2, Jak2 (a.a. 828-1132) (Homo sapiens, UniProt O60674); assay: In vitro JAK kinase assay (HTRF, phosphorylation of biotinylated peptide), JAK2; assay type: biochemical; conditions: 1 mM ATP; Examples 92-162; read-out: JAK2 IC50 (nM) @ 1 mM ATP
T2 construct: Jak2 (a.a. 828-1132); His tag (N); made in house; host or cells: insect cells (baculovirus)
T2 sequence (O60674 828-1132): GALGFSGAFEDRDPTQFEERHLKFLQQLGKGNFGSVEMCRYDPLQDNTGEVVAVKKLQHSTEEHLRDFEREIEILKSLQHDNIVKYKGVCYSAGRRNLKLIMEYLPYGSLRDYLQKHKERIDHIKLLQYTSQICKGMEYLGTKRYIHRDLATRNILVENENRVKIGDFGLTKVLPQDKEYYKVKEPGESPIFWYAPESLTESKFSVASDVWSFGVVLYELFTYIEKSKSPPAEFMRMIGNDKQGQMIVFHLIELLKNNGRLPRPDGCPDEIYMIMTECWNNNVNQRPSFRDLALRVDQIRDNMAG
Summary of the method: as §1

Row | IC50 [1] [nM] | IC50 (Jak2 (a.a. 828-1132)) [nM] | Compound
1 | 20 to 50 | > 100 | CC(CN1CCN(S(=O)(=O)c2ccccc2C#N)CC1)n1cc(-c2ncnc3[nH]ccc23)cn1 (centres unmarked) [Example 94, 2-[(4-{2-[4-(7H-pyrrolo[2,3-d]pyrimidin-4-yl)-1H-pyrazol-1-yl]propyl}piperazin-1-yl)sulfonyl]benzonitrile]
2 | 20 to 50 | > 100 | CC(CN1CCN(C(=O)c2ccc(F)cc2F)CC1)n1cc(-c2ncnc3[nH]ccc23)cn1 (centres unmarked) [Example 95, 4-(1-{2-[4-(2,4-difluorobenzoyl)piperazin-1-yl]-1-methylethyl}-1H-pyrazol-4-yl)-7H-pyrrolo[2,3-d]pyrimidine bis(trifluoroacetate)]
3 | 20 to 50 | > 100 | CC(CN1CCN(S(=O)(=O)c2cccc(F)c2)CC1)n1cc(-c2ncnc3[nH]ccc23)cn1 (centres unmarked) [Example 96, 4-[1-(2-{4-[(3-fluorophenyl)sulfonyl]piperazin-1-yl}-1-methylethyl)-1H-pyrazol-4-yl]-7H-pyrrolo[2,3-d]pyrimidine bis(trifluoroacetate)]
4 | 20 to 50 | > 100 | N#CCC(CN1CCCN(C(=O)c2ccc(O)cc2F)CC1)n1cc(-c2ncnc3[nH]ccc23)cn1 (centres unmarked) [Example 97, 4-[4-(2-fluoro-4-hydroxybenzoyl)-1,4-diazepan-1-yl]-3-[4-(7H-pyrrolo[2,3-d]pyrimidin-4-yl)-1H-pyrazol-1-yl]butanenitrile bis(trifluoroacetate)]
5 | 20 to 50 | > 100 | N#CCC(CN1CCCN(C(=O)c2ccc(F)cc2)CC1)n1cc(-c2ncnc3[nH]ccc23)cn1 (centres unmarked) [Example 98, 4-[4-(4-fluorobenzoyl)-1,4-diazepan-1-yl]-3-[4-(7H-pyrrolo[2,3-d]pyrimidin-4-yl)-1H-pyrazol-1-yl]butanenitrile]
6 | 20 to 50 | 50 to 100 | N#CCC(CN1CCCN(C(=O)c2ccc(F)cc2F)CC1)n1cc(-c2ncnc3[nH]ccc23)cn1 (centres unmarked) [Example 99, 4-[4-(2,4-difluorobenzoyl)-1,4-diazepan-1-yl]-3-[4-(7H-pyrrolo[2,3-d]pyrimidin-4-yl)-1H-pyrazol-1-yl]butanenitrile]
7 | < 20 | 20 to 50 | N#CCC(CN1CCCN(C(=O)c2ccc(Cl)cc2F)CC1)n1cc(-c2ncnc3[nH]ccc23)cn1 (centres unmarked) [Example 100, 4-[4-(4-chloro-2-fluorobenzoyl)-1,4-diazepan-1-yl]-3-[4-(7H-pyrrolo[2,3-d]pyrimidin-4-yl)-1H-pyrazol-1-yl]butanenitrile]
8 | 20 to 50 | > 100 | N#CCC(CN1CCCN(C(=O)c2ccccc2F)CC1)n1cc(-c2ncnc3[nH]ccc23)cn1 (centres unmarked) [Example 101, 4-[4-(2-fluorobenzoyl)-1,4-diazepan-1-yl]-3-[4-(7H-pyrrolo[2,3-d]pyrimidin-4-yl)-1H-pyrazol-1-yl]butanenitrile]
9 | 20 to 50 | 50 to 100 | N#CCC(CN1CCCN(S(=O)(=O)c2ccccc2C#N)CC1)n1cc(-c2ncnc3[nH]ccc23)cn1 (centres unmarked) [Example 102, 2-[(4-{3-cyano-2-[4-(7H-pyrrolo[2,3-d]pyrimidin-4-yl)-1H-pyrazol-1-yl]propyl}-1,4-diazepan-1-yl)sulfonyl]benzonitrile]
10 | 20 to 50 | > 100 | N#CCC(CN1CCCN(C(=O)c2ccc(Cl)cc2Cl)CC1)n1cc(-c2ncnc3[nH]ccc23)cn1 (centres unmarked) [Example 103, 4-[4-(2,4-dichlorobenzoyl)-1,4-diazepan-1-yl]-3-[4-(7H-pyrrolo[2,3-d]pyrimidin-4-yl)-1H-pyrazol-1-yl]butanenitrile]
11 | 20 to 50 | > 100 | N#CCC(CN1CCCN(C(=O)c2ccc(N)cc2F)CC1)n1cc(-c2ncnc3[nH]ccc23)cn1 (centres unmarked) [Example 104, 4-[4-(4-amino-2-fluorobenzoyl)-1,4-diazepan-1-yl]-3-[4-(7H-pyrrolo[2,3-d]pyrimidin-4-yl)-1H-pyrazol-1-yl]butanenitrile]
12 | 20 to 50 | > 100 | Cc1cc(Cl)ccc1C(=O)N1CCCN(CC(CC#N)n2cc(-c3ncnc4[nH]ccc34)cn2)CC1 (centres unmarked) [Example 105, 4-[4-(4-chloro-2-methylbenzoyl)-1,4-diazepan-1-yl]-3-[4-(7H-pyrrolo[2,3-d]pyrimidin-4-yl)-1H-pyrazol-1-yl]butanenitrile]
13 | < 20 | 50 to 100 | COc1cc(Cl)ccc1C(=O)N1CCCN(CC(CC#N)n2cc(-c3ncnc4[nH]ccc34)cn2)CC1 (centres unmarked) [Example 106, 4-[4-(4-chloro-2-methoxybenzoyl)-1,4-diazepan-1-yl]-3-[4-(7H-pyrrolo[2,3-d]pyrimidin-4-yl)-1H-pyrazol-1-yl]butanenitrile]
14 | 20 to 50 | > 100 | N#CCC(CN1CCCN(C(=O)c2ccc(Cl)cc2)CC1)n1cc(-c2ncnc3[nH]ccc23)cn1 (centres unmarked) [Example 107, 4-[4-(4-chlorobenzoyl)-1,4-diazepan-1-yl]-3-[4-(7H-pyrrolo[2,3-d]pyrimidin-4-yl)-1H-pyrazol-1-yl]butanenitrile]
15 | < 20 | 50 to 100 | Cc1ccccc1S(=O)(=O)N1CCCN(CC(CC#N)n2cc(-c3ncnc4[nH]ccc34)cn2)CC1 (centres unmarked) [Example 108, 4-{4-[(2-methylphenyl)sulfonyl]-1,4-diazepan-1-yl}-3-[4-(7H-pyrrolo[2,3-d]pyrimidin-4-yl)-1H-pyrazol-1-yl]butanenitrile]
16 | 20 to 50 | > 100 | N#CCC(CN1CCCN(S(=O)(=O)c2ccccc2C(F)(F)F)CC1)n1cc(-c2ncnc3[nH]ccc23)cn1 (centres unmarked) [Example 109, 3-[4-(7H-pyrrolo[2,3-d]pyrimidin-4-yl)-1H-pyrazol-1-yl]-4-(4-{[2-(trifluoromethyl)phenyl]sulfonyl}-1,4-diazepan-1-yl)butanenitrile]
17 | 20 to 50 | > 100 | N#CCC(CN1CCCN(S(=O)(=O)c2ccccc2OC(F)(F)F)CC1)n1cc(-c2ncnc3[nH]ccc23)cn1 (centres unmarked) [Example 110, 3-[4-(7H-pyrrolo[2,3-d]pyrimidin-4-yl)-1H-pyrazol-1-yl]-4-(4-{[2-(trifluoromethoxy)phenyl]sulfonyl}-1,4-diazepan-1-yl)butanenitrile]
18 | 20 to 50 | 50 to 100 | COc1ccc(OC)c(S(=O)(=O)N2CCCN(CC(CC#N)n3cc(-c4ncnc5[nH]ccc45)cn3)CC2)c1 (centres unmarked) [Example 111, 4-{4-[(2,5-dimethoxyphenyl)sulfonyl]-1,4-diazepan-1-yl}-3-[4-(7H-pyrrolo[2,3-d]pyrimidin-4-yl)-1H-pyrazol-1-yl]butanenitrile]
19 | < 20 | 20 to 50 | COc1ccc(Cl)cc1S(=O)(=O)N1CCCN(CC(CC#N)n2cc(-c3ncnc4[nH]ccc34)cn2)CC1 (centres unmarked) [Example 112]
20 | 20 to 50 | > 100 | N#CCC(CN1CCCN(S(=O)(=O)c2ccccc2Oc2ccccc2)CC1)n1cc(-c2ncnc3[nH]ccc23)cn1 (centres unmarked) [Example 113, 4-{4-[(2-phenoxyphenyl)sulfonyl]-1,4-diazepan-1-yl}-3-[4-(7H-pyrrolo[2,3-d]pyrimidin-4-yl)-1H-pyrazol-1-yl]butanenitrile]
21 | 20 to 50 | 50 to 100 | COc1ccc(Br)cc1S(=O)(=O)N1CCCN(CC(CC#N)n2cc(-c3ncnc4[nH]ccc34)cn2)CC1 (centres unmarked) [Example 114, 4-{4-[(5-bromo-2-methoxyphenyl)sulfonyl]-1,4-diazepan-1-yl}-3-[4-(7H-pyrrolo[2,3-d]pyrimidin-4-yl)-1H-pyrazol-1-yl]butanenitrile]
22 | < 20 | 20 to 50 | CCC(CN1CCN(S(=O)(=O)c2ccn(C)n2)CC1)n1cc(-c2ncnc3[nH]ccc23)cn1 (centres unmarked) [Example 115, 4-{1-[1-({4-[(1-methyl-1H-pyrazol-3-yl)sulfonyl]piperazin-1-yl}methyl)propyl]-1H-pyrazol-4-yl}-7H-pyrrolo[2,3-d]pyrimidine]
23 | 20 to 50 | > 100 | CCC(CN1CCN(C(=O)c2ccc(F)cc2)CC1)n1cc(-c2ncnc3[nH]ccc23)cn1 (centres unmarked) [Example 116, (4-(2-(4-(7H-pyrrolo[2,3-d]pyrimidin-4-yl)-1H-pyrazol-1-yl)butyl)piperazin-1-yl)(4-fluorophenyl)methanone]
24 | 20 to 50 | 50 to 100 | CCC(CN1CCN(C(=O)c2ccccc2O)CC1)n1cc(-c2ncnc3[nH]ccc23)cn1 (centres unmarked) [Example 117, 2-[(4-{2-[4-(7H-pyrrolo[2,3-d]pyrimidin-4-yl)-1H-pyrazol-1-yl]butyl}piperazin-1-yl)carbonyl]phenol]
25 | < 20 | 20 to 50 | CCC(CN1CCN(C(=O)c2ccc(F)cc2F)CC1)n1cc(-c2ncnc3[nH]ccc23)cn1 (centres unmarked) [Example 118, (4-(2-(4-(7H-pyrrolo[2,3-d]pyrimidin-4-yl)-1H-pyrazol-1-yl)butyl)piperazin-1-yl)(2,4-difluorophenyl)methanone]
26 | 20 to 50 | 50 to 100 | CCC(CN1CCN(C(=O)c2cc(F)ccc2F)CC1)n1cc(-c2ncnc3[nH]ccc23)cn1 (centres unmarked) [Example 119, (4-(2-(4-(7H-pyrrolo[2,3-d]pyrimidin-4-yl)-1H-pyrazol-1-yl)butyl)piperazin-1-yl)(2,5-difluorophenyl)methanone]
27 | 20 to 50 | 50 to 100 | CCC(CN1CCN(C(=O)c2cccc(F)c2F)CC1)n1cc(-c2ncnc3[nH]ccc23)cn1 (centres unmarked) [Example 120, (4-(2-(4-(7H-pyrrolo[2,3-d]pyrimidin-4-yl)-1H-pyrazol-1-yl)butyl)piperazin-1-yl)(2,3-difluorophenyl)methanone]
28 | 20 to 50 | > 100 | CCC(CN1CCN(C(=O)c2cc(F)cc(F)c2)CC1)n1cc(-c2ncnc3[nH]ccc23)cn1 (centres unmarked) [Example 121, (4-(2-(4-(7H-pyrrolo[2,3-d]pyrimidin-4-yl)-1H-pyrazol-1-yl)butyl)piperazin-1-yl)(3,5-difluorophenyl)methanone]
